{"source": "patent US20250135006A1", "about": "“AMPHIPHILIC TLR7/8 ADJUVANTS AND USES THEREOF” (Pfizer Inc., priority 2023, published 2025)", "target": "T1, human toll like receptor 7 (hTLR7) (Homo sapiens, UniProt Q9NYK1)", "T1 construct": "host or cells: HEK293 (HEK-Blue hTLR7)", "T1 sequence (Q9NYK1 27-1049)": "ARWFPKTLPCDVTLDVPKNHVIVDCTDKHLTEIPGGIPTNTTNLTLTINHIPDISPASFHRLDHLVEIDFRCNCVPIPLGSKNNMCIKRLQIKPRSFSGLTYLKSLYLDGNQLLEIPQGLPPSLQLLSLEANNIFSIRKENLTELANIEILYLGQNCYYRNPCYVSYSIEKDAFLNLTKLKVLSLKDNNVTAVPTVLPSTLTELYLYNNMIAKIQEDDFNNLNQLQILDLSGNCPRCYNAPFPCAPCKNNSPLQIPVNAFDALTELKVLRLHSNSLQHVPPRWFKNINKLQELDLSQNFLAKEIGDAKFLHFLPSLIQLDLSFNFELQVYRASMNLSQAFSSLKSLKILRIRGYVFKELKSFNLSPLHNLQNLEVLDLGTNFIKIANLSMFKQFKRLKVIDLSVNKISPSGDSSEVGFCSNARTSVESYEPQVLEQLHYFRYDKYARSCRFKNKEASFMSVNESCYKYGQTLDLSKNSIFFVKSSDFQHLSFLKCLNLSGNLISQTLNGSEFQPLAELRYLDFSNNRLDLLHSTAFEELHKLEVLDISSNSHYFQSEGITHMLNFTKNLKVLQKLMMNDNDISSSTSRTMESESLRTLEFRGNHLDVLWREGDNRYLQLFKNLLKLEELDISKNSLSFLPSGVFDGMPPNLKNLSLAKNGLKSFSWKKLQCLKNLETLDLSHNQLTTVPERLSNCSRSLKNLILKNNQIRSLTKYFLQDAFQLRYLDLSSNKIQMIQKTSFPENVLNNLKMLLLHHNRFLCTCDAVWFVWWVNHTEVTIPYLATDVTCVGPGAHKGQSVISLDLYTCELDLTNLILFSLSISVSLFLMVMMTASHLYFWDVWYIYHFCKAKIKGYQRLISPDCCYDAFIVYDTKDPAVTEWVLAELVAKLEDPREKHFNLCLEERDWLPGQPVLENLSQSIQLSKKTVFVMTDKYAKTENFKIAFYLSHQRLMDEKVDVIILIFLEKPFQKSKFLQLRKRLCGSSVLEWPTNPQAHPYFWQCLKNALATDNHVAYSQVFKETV", "assay": "hTLR7 in-vitro functional assay (HEK-Blue hTLR7 SEAP reporter)", "type": "cell-based", "conditions": "HEK-Blue hTLR7 cells, overnight incubation", "data": [{"smiles": "CCCCc1nc2c(N)nc3cc(CCCN4CCN(C(=O)CCOCCOCCOCCOCCOCCOCCOCCOCCOCCOCCOCCOCCOCCOCCOCCOCCOCCOCCOCCOCCOCCOCCOCCOCCNC(=O)CCOCCOCCOCCOCCNC(=O)CCCOc5c(C)c(C)c6c(c5C)CC[C@@](C)(CCC[C@H](C)CCC[C@H](C)CCCC(C)C)O6)CC4)ccc3c2n1CC(C)(CO)CO", "note": "[Compound 2, N-{75-[4-(3-{4-amino-2-butyl-1-[3-hydroxy-2-(hydroxymethyl)-2-methylpropyl]-1H-imidazo[4,5-c]quinolin-7-yl}propyl)piperazin-1-yl]-75-oxo-3,6,9,12,15,18,21,24,27,30,33,36,39,42,45,48,51,54,57,60,63,66,69,72-tetracosaoxapentaheptacont-1-yl}-17-oxo-20-({(2R)-2,5,7,8-tetramethyl-2-[(4R,8R)-4,8,12-trimethyltridecyl]-3,4-dihydro-2H-chromen-6-yl}oxy)-4,7,10,13-tetraoxa-16-azaicosan-1-amide]", "values": [{"measurement": "EC50", "value": 355, "unit": "nM"}]}]}
